Measured values from ChEMBL document CHEMBL3507680, “University of Dundee, Gates Library screen for HepG2 cell viability”.

Assay: Human HepG2 cell viability assay in 384 well format
Assay type: toxicity, cell-based
Design: dose 125 nL, time 70.5 hour; cytotoxicity at 70.5 h: concentration not given beside the values
Conditions: HepG2 cells, read-out: Inhibition

Row | SMILES | cytotoxicity at 70.5 h [%]
1 | Cc1cc(N2CCCC3(CN(C)C(=O)O3)C2)c2cc3c(cc2n1)OCO3 (stereo unspecified) | 19.1
2 | Cc1cc(C(=O)NCc2ccnc(N(C)C)c2)c(C)o1 | -13.2
3 | O=C(c1c[nH]cn1)N1CCC(F)(F)C2(CCN(c3cnccn3)C2)C1 (stereo unspecified) | 0.139
4 | COCCN1CCC(Nc2c(F)cc(C#N)cc2F)CC1 | -14.5
5 | CS(=O)(=O)NCC1(c2ccccc2Br)CC1 | -5.81
6 | CC1(C)CNC(=O)c2nc(C3CCN(C(=O)C4CC4)CC3)[nH]c2C1 | -11
7 | COc1c(C(N)=O)cn(C)c1-c1nc2cc(NC(C)=O)ccc2n1C | -14.7
8 | Cc1nn(C)c2nc(N(C)CCN(C)C3CCCC3)sc12 | 5.16
9 | Cc1cccc(C(=O)NC2CCN(c3cnn(C)c3)C2=O)c1C (stereo unspecified) | -2.07
10 | CN(C)c1cc(C(=O)N2CCCCC2CNS(C)(=O)=O)ccn1 (stereo unspecified) | 0.448
11 | CC(C)(C)CN1CCCC12CCN(S(=O)(=O)c1ccccc1)C2 (stereo unspecified) | -2.83
12 | Cc1ccccc1N(CC(=O)NCCc1nnc2n1CCC2)S(C)(=O)=O | -4.09
13 | COc1ccc(F)cc1S(=O)(=O)NCCn1cnc(C)cc1=O | -12.5
14 | Cc1cccc(C)c1CN1C(=O)CC2(CCSC2)C1=O (stereo unspecified) | 0.0631
15 | NCC(CO)Cc1ccc(C(F)(F)F)cc1 (stereo unspecified) | 4.66
16 | CN(C)C(=O)[C@@H]1C[C@@H]2CCN(Cc3nccs3)C[C@@H]2O1 | -6.01
17 | CCOC(=O)Cc1csc(NC(=O)c2ccc(=O)[nH]n2)n1 | -5.3
18 | COC(C)(C)CNC(=O)C1CCC(=O)N(C2CCCC2)C1 (stereo unspecified) | 0.695
19 | Cc1ccc(S(=O)(=O)N2CC(C)Oc3ncccc32)c(C)c1 (stereo unspecified) | -4.94
20 | Cc1ccn2c(=O)cc(CSCC(=O)Nc3nnc(C(C)C)s3)nc2c1 | 23
21 | CCSc1nnc([C@@H](N)CC(C)C)o1 | -7.55
22 | O=C(c1cccnc1N1CCCCC1)N1CCCC(n2cccn2)C1 (stereo unspecified) | 15.6
23 | c1ncc2c(n1)CN(Cc1cn3ccsc3n1)CC2 | -4.44

Row | SMILES | cytotoxicity at 70.5 h [%]
24 | CCc1nc(C2CCCN2C(=O)CCCn2cccn2)no1 (stereo unspecified) | -7.2
25 | CC(C)CN1CCC2(C1)CN(S(=O)(=O)c1cn(C)cn1)C2 | 4.36
26 | CC(C)NC(=O)CCNC(=O)c1cnc(Cc2ccc(F)cc2)s1 | -4.85
27 | O=C1CCCN1CC1CN(C(=O)CC2CCCC2)Cc2nccn2C1 (stereo unspecified) | -8.43
28 | CCn1c(C2CCCN(Cc3cc(C)cc(C)c3)C2)nn(C)c1=O (stereo unspecified) | 3.73
29 | NC(=O)c1cc(CC2CCCN(c3cnccn3)C2)ncn1 (stereo unspecified) | -6.16
30 | Cc1ccc(CC(=O)N2CCCCC2Cn2cccn2)cn1 (stereo unspecified) | -0.224
31 | CCn1nc(C)c(CNC(=O)c2nnc3ccc(Cl)cc3n2)c1C | 0.121
32 | Cc1ncncc1-c1ccnc(NC(C)C)n1 | -2.82
33 | Fc1cccc(CN2CCC(c3cc4ncccc4cn3)CC2)c1F | 4.71
34 | Cc1nc(C(=O)N2CCCC(c3cccc(-n4ccnc4)n3)C2)co1 (stereo unspecified) | 4.94
35 | COc1ccc(CC(=O)N2CCCC(c3nncn3C)C2)cc1 (stereo unspecified) | -2.88
36 | O=C(c1ccc2c(c1)[nH]c(=O)n2[C@H]1CC[C@H](O)CC1)N1CCOCC1 | -12.1
37 | Cc1ccc(CNCC2Cn3nncc3CO2)s1 (stereo unspecified) | -4.83
38 | COc1ccccc1OCC(=O)NS(=O)(=O)c1ccccc1Br | 0.476
39 | COc1ccc(CC(C)(O)CNC(=O)Cc2ccc(F)cc2)cc1 (stereo unspecified) | -21
40 | COc1ccc(C)cc1CN1CCOC(Cn2nc(C)nc2C)C1 (stereo unspecified) | -19.6
41 | COCC(=O)N1CCC2(CCc3ccc(F)cc32)CC1 | -2.02
42 | CC(C)(C(=O)NCC1CCN(Cc2ccccn2)C1)c1ccccc1 (stereo unspecified) | 18.1
43 | Cc1ccc(C)c(NC(=O)c2n[nH]c(-n3cnnc3)n2)c1 | -0.779
44 | COc1ccc(C)cc1C(C)NC(=O)NCCCn1cncn1 (stereo unspecified) | -10.9
45 | CN1CC(=O)N(C2CCCNC2)Cc2c(NC3CCC3)ncnc21 (stereo unspecified) | -3.06
46 | CCCc1nc(C)cc(N2CCC3(CCC(=O)N(CCCO)C3)CC2)n1 | -7.61
